# No end group written: not given here.
# Test system: E. coli-LPS-activated RAW 264.7 macrophages
# Test: TNF-α and IL-6 secretion ELISA, RAW 264.7
# Assay type: cell-based, mouse
# Details: RAW 264.7, E. coli LPS 0.1 μg/ml 24 h, Fig 1E
# Experimental: The expression levels of IL-1β, IL-6 and TNF-α in the conditional medium, sera and lavage fluids were measured by ELISA as described in detail previously.
# Fig 1 Effects of GW-A2 on the expression levels of inflammatory mediators. (A) RAW 264.7 macrophages were incubated for 30 min with or without GW-A2 or scrambled GW-A2, followed by incubation with or without 0.1 μg/ml of E. coli LPS or Salmonella LPS for 24 h. The levels of NO in the culture medium were measured by the Griess reaction. (B) RAW 264.7 macrophages were incubated for 30 min with or without GW-A2, followed by incubation with or without peptidoglycan (20 μg/ml), Pam3CSK4 (0.2 μg/ml) or capsular polysaccharide (3 μg/ml) for 24 h. The levels of NO in the culture medium were measured by the Griess reaction. […] The levels of iNOS and COX-2 were assessed by Western blotting and the histograms represent the expression levels compared to the LPS alone group obtained in three different experiments. […] The mRNA levels of iNOS and COX-2 were assessed by quantitative real-time PCR. […] The cell proliferation was measured by AlamarBlue® assay. The data are expressed as the mean ± SD of three independent experiments. *, ** and *** indicate significant differences, representing p < 0.05, p < 0.01 and p < 0.001, respectively compared to stimulation alone. # indicates significant differences, representing p < 0.05 compared to 2 μM of GW-A2 group.
sequence,measurement,value
GAKYAKIIYNYLKKIANALW [GW-A2],IL-6 secretion level,reduced
same,TNF-α secretion level,reduced
